Format in all cases: physicochemical
Data set [1] is described as follows: CCC extraction with DME of clarified fermentation broth from Clostridium acetobutylicum, GC and DNS assay. As for the experimental part:
This example describes three different runs of the CCC with fermentation broth from Clostridium acetobutylicum. […] The fermentation was intentionally interrupted prior to completion.
The extraction column operated at room temperature (˜25° C.) throughout the column. Periodic extract and raffinate samples were taken and analyzed for the constituents in the extract and raffinate discharges.
This example describes three different runs. In all cases, the mass of solvent to the mass of feed ratio (S/F) was 0.9. In all example the fermentation broth was first centrifuged to removal all cellular matter. Thus, the feed solution was clarified. In the case of the first run, the following components were measured via gas chromatograph (GC) analysis using external standard calibration. The external standard was run prior to analyzing the samples to provide individual calibration between peak area and the respective constituent under measure. […] Acetate was the conjugate base of acetic acid. Butyrate was the conjugate base of butyric acid. All components were quantified in the extract and raffinate. Since the extract and raffinate are mostly water and DME dissolves in water to approximately 20 wt. %, the samples were allowed to degas over a 24 hour period.
During the run, samples were taken of the extract and raffinate. In the case of the extract, the bulk DME was removed by reduction of pressure and addition of heat to flash the DME from the water and other solution constituents.
Extract and raffinate samples were collected at periodic intervals during the CCC testing. […] Glucose was measured via a DNS (3,5-dinitrosalicylic acid) assay.
In cases where the extract formed a two phase solution, the extract samples were diluted with distilled water to create a single phase and homogenous sample prior to GC. The dilution factor was then used to correct the GC measurements for concentrations prior to dilution.

Data set [2] can be described thus: Packed-column extraction of ethanol and ABE solutions with liquid DME, incremental distribution coefficients. The settings on record: for Distribution Coefficient: ABE solution. As for the experimental part:
The tests were carried out in a 50-inch long by 0.68-inch internal diameter (ID) column containing stainless steel distillation packing to increase mass transfer between the liquid DME and the aqueous solution. The flow rate of the liquid DME for all the tests was about […], which calculates to a superficial velocity of the liquid DME of ˜0.3 cm/sec.
For each test, about 65 g of a pre-made feed solution was charged to the extraction column, and the column was sealed. DME was introduced into the system and pressure was maintained at 250 psi with the lab pump. Each run was carried out at ambient temperature (about 30° C.), and flow was manually controlled with the pressure-reduction valve.
About ⅓ of the charge was extracted in each test with DME in three fractions, and the raffinate was collected at the end of each test in two fractions. In the event that the concentration of ethanol, or ABE, in the raffinate was not homogeneous along the length of the column, the raffinate was collected in two fractions where RAF#1 was the first (bottom) portion of the raffinate drained and RAF#2 was the remaining (upper) portion.
All samples along with controls were sent to R.D. Laboratories (Washington, Mo.) for gas chromatography (GC) analysis.
The distribution coefficient (DC) is calculated as the ratio of the concentration of the component in the extract (y) phase to the concentration of the component in the raffinate (x) phase, or DC=Cy/Cx. Using the material balance information in the tables above, and the component analysis supplied by R.D. Labs, the incremental DCs for each fraction were calculated. These DCs are calculated using the conservative assumption that there is no dissolved DME in the liquid phase remaining in the extractor.

A short description of data set [3]: Distribution coefficients of ABE mixtures between DME and aqueous phase in agitated pressure vessel, HPLC. As for the experimental part: The compositions of the aqueous mixtures were based on concentrations typically produced in a cellulosic fermentation.
Mixtures were charged to a pressure vessel and agitated to provide adequate contacting between the aqueous and solvent (DME) phases. Heat tape was used to control the temperature of the liquid that was measured by thermocouples. Pressure and temperature measurements were taken every five minutes. After temperature and pressure stabilization agitation was ceased and the liquid phases were allowed to fully settle.
A mass balance was also performed on each component of the ABE and BE mixtures to determine a degree of accuracy of the results.

The structures appear in SMILES notation.

For the molecule `CC(C)=O` [Acetone, acetone], the concentration in sample in data set [1] (Run 3, Extract Bot, time 31 min) was determined as 7880 µg/mL; in data set [1] (Run 3, Extract Bot, time 37 min), 7900 µg/mL; in data set [1] (Run 3, Extract Top, time 31 min) it was 7030 µg/mL; in data set [1] (Run 3, Extract Top, time 37 min), 6440 µg/mL; in data set [1] (Run 3, Extract, time 22 min), 2980 µg/mL; in data set [1] (Run 3, Extract, time 27 min) it was 5300 µg/mL. The concentration in sample is 5140 µg/mL in data set [1] (Run 3, Extract, time 43 min); 4610 µg/mL in data set [1] (Run 3, Extract, time 70 min); 4090 µg/mL in data set [1] (Run 3, Extract, time 74 min); 3830 µg/mL in data set [1] (Run 3, Extract, time 78 min); 4630 µg/mL in data set [1] (Run 3, Extract, time 82 min); 4870 µg/mL in data set [1] (Run 3, Feed, time 0 min). The concentration in sample is 1200 µg/mL in data set [1] (Run 3, Raffinate, time 22 min); 400 µg/mL in data set [1] (Run 3, Raffinate, time 27 min); 310 µg/mL in data set [1] (Run 3, Raffinate, time 31 min); 140 µg/mL in data set [1] (Run 3, Raffinate, time 37 min); 150 µg/mL in data set [1] (Run 3, Raffinate, time 43 min); 110 µg/mL in data set [1] (Run 3, Raffinate, time 70 min). The concentration in sample in data set [1] (Run 3, Raffinate, time 74 min) was determined as 600 µg/mL; in data set [1] (Run 3, Raffinate, time 78 min), 820 µg/mL; in data set [1] (Run 3, Raffinate, time 82 min), 460 µg/mL. Also, the “Distribution Coefficient” value in data set [2] (fraction F1, liquid DME) is reported as 0.24; in data set [2] (fraction F2, liquid DME), 0.16; in data set [2] (fraction F3, liquid DME), 0.04. In data set [2] (previous results, DME/aqueous), the “distribution coefficient, previous measurements” value was found to be 0.25. For the same molecule, in data set [3] (38° C.), the “distribution coefficient (slope of line fit)” value is 1.27. Moreover, the DC in data set [3] (test ABE1, […] C., 104 psig) was 1.28; in data set [3] (test ABE2, 38.3 ° C., 102 psig) it was 1.25; in data set [3] (test ABE3, 38.3 ° C., 103 psig) it was 1.23; in data set [3] (test ABE4, 38.0 ° C., 103 psig), 1.34.

Consider `O` [Water, water], for which the DC came to 0.15 in data set [3] (test ABE1, […] C., 104 psig); 0.14 in data set [3] (test ABE2, 38.3 ° C., 102 psig); 0.13 in data set [3] (test ABE3, 38.3 ° C., 103 psig); 0.14 in data set [3] (test ABE4, 38.0 ° C., 103 psig); 0.15 in data set [3] (test B1, […] C., 78 psig); 0.11 in data set [3] (test B2, 28.2 ° C., 83 psig). In addition, the DC in data set [3] (test B3, […] C., 86 psig) worked out at 0.11; in data set [3] (test BE1, 30.1 ° C., 85 psig) it was 0.13; in data set [3] (test BE2, 38.9 ° C., 107 psig), 0.13; in data set [3] (test BE3, 37.6 ° C., 103 psig), 0.12; in data set [3] (test BE3, 38.4 ° C., 106 psig) it was 0.12.

The values are drawn from patent US9630894B2, “Energy efficient method and apparatus for the extraction of biomolecules from dilute aqueous solution” (DYNASEP INC., priority 2012, dated 2017).
